# Key:
# Cbl-b [1] = target: T1, Cbl-b (Homo sapiens, UniProt Q13191); experiment: Cbl-b Degradation Method A (FACS, anti-Cbl-b antibody staining); format: cell-based; details: Cbl-b-HiBit KI Jurkat Cells, incubated at least 20 hours; for DC50: half maximal degradation, read-out: Cbl-b Degredation Method A IC50; for Dmax: Jurkat, maximum degradation observed, read-out: Cbl-b Degredation Method A Dmax (%)
# T1 construct: Cbl-b-HiBit KI Jurkat Cells were purchased from Promega; host or cells: Cbl-b-HiBiT knock-in Jurkat cells
# T1 sequence (Q13191 whole entry): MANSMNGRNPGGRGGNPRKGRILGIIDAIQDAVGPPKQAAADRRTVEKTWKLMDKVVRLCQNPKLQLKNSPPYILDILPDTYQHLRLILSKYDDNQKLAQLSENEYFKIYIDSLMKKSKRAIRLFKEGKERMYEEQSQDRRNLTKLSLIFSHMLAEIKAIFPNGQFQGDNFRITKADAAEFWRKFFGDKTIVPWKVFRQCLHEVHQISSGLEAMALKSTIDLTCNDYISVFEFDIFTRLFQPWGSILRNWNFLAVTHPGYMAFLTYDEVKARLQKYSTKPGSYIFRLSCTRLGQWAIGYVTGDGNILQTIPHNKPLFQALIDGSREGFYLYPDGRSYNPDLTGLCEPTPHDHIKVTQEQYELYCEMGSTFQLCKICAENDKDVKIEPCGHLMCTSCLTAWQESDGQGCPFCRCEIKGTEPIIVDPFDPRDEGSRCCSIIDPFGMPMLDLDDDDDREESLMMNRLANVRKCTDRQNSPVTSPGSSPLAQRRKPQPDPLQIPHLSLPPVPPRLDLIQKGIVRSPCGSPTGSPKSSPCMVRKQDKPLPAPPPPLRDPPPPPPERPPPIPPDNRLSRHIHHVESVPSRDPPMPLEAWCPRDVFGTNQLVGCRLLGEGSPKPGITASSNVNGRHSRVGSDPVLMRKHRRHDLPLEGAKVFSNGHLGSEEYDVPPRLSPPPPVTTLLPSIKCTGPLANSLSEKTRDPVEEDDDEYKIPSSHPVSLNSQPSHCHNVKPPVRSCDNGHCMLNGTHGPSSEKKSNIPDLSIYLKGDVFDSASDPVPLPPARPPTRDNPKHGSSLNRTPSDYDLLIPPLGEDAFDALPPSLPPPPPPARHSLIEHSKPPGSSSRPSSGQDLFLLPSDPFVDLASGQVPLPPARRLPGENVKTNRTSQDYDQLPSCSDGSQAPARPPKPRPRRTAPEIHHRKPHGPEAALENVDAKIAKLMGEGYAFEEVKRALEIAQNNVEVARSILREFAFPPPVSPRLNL
# In short: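 Cbl-b-HiBit KI Jurkat cells treated with compound for at least 20 h at 37 °C, then fixed, permeabilized and stained with anti-Cbl-b antibody plus anti-rabbit AF488 secondary. Cbl-b levels read by FACS; DC50 and Dmax (percent of control) derived.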
# Cbl-b [2] = target: T1, Cbl-b; experiment: Cbl-b Degradation Method B (Nano-Glo HiBiT lytic detection); format: cell-based; details: Cbl-b-HiBit KI Jurkat Cells, incubated at least 6-24 hours; for DC50: half maximal degradation, read-out: Cbl-b Degredation Method B IC50; for Cbl-b Degredation Method B Dmax (%) / Dmax: maximum degradation observed; for Dmax: read-out: Cbl-b Degredation Method B Dmax (%)
# In short: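 Cbl-b-HiBiT knock-in Jurkat cells (20,000/well) were treated after ~24 h plating with an 11-point 1:3 series for 6-24 h at 37° C. Remaining Cbl-b measured by Nano-Glo HiBiT lytic luminescence. DC50 and Dmax expressed as % of control.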
DC50 (Cbl-b [1]) [µM],Dmax (Cbl-b [1]) [%],DC50 (Cbl-b [2]) [µM],Cbl-b Degredation Method B Dmax (%) (Cbl-b [2]),Dmax (Cbl-b [2]) [%],SMILES
0.05 to 0.5,35 to 70,< 0.005,C (C ≤ 35),,"Cn1cnnc1CC1(c2cccc(N3Cc4c(cc(CN5CCC[C@@H](CN6CCN(C[C@H]7CC[C@H](OC8CCN(c9ccc%10c(c9F)CN(C9CCC(=O)NC9=O)C%10=O)CC8)CC7)CC6(C)C)C5)cc4C(F)(F)F)C3=O)c2)COC1 (stereo partly drawn) [Example 286, 3-[4-fluoro-1-oxo-5-(4-{[(1r,4r)-4-[(3,3-dimethyl-4-{[(3R)-1-{[2-(3-{3-[(4-methyl-4H-1,2,4-triazol-3-yl)methyl]oxetan-3-yl}phenyl)-3-oxo-7-(trifluoromethyl)-2,3-dihydro-1H-isoindol-5-yl]methyl}piperidin-3-yl]methyl}piperazin-1-yl)methyl]cyclohexyl]oxy}piperidin-1-yl)-2,3-dihydro-1H-isoindol-2-yl]piperidine-2,6-dione]"
> 0.5,,> 0.5,,,"Cn1cnnc1CC1(c2cccc(N3Cc4c(cc(N5CCC6(CCN(c7ccc8c(c7)C(=O)N(C7CCC(=O)NC7=O)C8=O)CC6)CC5)cc4C(F)(F)F)C3=O)c2)COC1 (stereo not drawn) [Example 125, 2-(2,6-dioxopiperidin-3-yl)-5-{9-[2-(3-{3-[(4-methyl-4H-1,2,4-triazol-3-yl)methyl]oxetan-3-yl}phenyl)-3-oxo-7-(trifluoromethyl)-2,3-dihydro-1H-isoindol-5-yl]-3,9-diazaspiro[5.5]undecan-3-yl}-2,3-dihydro-1H-isoindole-1,3-dione]"
> 0.5,,> 0.5,,,"Cn1cnnc1CC1(c2cccc(N3Cc4c(cc(N5CC(OCC6CCN(c7ccc8c(c7)CN(C7CCC(=O)NC7=O)C8=O)CC6)C5)cc4C(F)(F)F)C3=O)c2)COC1 (stereo not drawn) [Example 21, 3-[5-[4-[[1-[2-[3-[3-[(4-methyl-1,2,4-triazol-3-yl)methyl]oxetan-3-yl]phenyl]-3-oxo-7-(trifluoromethyl)isoindolin-5-yl]azetidin-3-yl]oxymethyl]-1-piperidyl]-1-oxo-isoindolin-2-yl]piperidine-2,6-dione]"
> 0.5,,> 0.5,,,"CC1CC(N2CCC(COCCOc3ccc4c(c3)C(=O)N(C3CCC(=O)NC3=O)C4=O)CC2)CN(Cc2cc3c(c(C(F)(F)F)c2)CN(c2cccc(C4(Cc5nncn5C)COC4)c2)C3=O)C1 (stereo not drawn) [Example 102, 2-(2,6-dioxopiperidin-3-yl)-5-{2-[(5′-methyl-1′-{[2-(3-{3-[(4-methyl-4H-1,2,4-triazol-3-yl)methyl]oxetan-3-yl}phenyl)-3-oxo-7-(trifluoromethyl)-2,3-dihydro-1H-isoindol-5-yl]methyl}-[1,3′-bipiperidin]-4-yl)methoxy]ethoxy}-2,3-dihydro-1H-isoindole-1,3-dione]"
> 0.5,,> 0.5,,,"Cn1cnnc1CC1(c2cccc(N3Cc4c(cc(CN5CCC(CC6CN(c7cccc8c7C(=O)N(C7CCC(=O)NC7=O)C8=O)C6)CC5)cc4C(F)(F)F)C3=O)c2)COC1 (stereo not drawn) [Example 99, 2-(2,6-dioxopiperidin-3-yl)-4-{3-[(1-{[2-(3-{3-[(4-methyl-4H-1,2,4-triazol-3-yl)methyl]oxetan-3-yl}phenyl)-3-oxo-7-(trifluoromethyl)-2,3-dihydro-1H-isoindol-5-yl]methyl}piperidin-4-yl)methyl]azetidin-1-yl}-2,3-dihydro-1H-isoindole-1,3-dione]"
< 0.005,> 70,< 0.005,,> 70,"C[C@H]1CN(Cc2cc3c(c(C(F)(F)F)c2)CN(c2cccc(C4(Cc5nncn5C)COC4)c2)C3=O)CCN1CC1CCC(OC2CCN(c3ccc4c(c3F)CN(C3CCC(=O)NC3=O)C4=O)CC2)CC1 (stereo partly drawn) [Example 237, 3-[4-fluoro-1-oxo-5-(4-{[(1rs,4rs)-4-{[(2S)-2-methyl-4-{[2-(3-{3-[(4-methyl-4H-1,2,4-triazol-3-yl)methyl]oxetan-3-yl}phenyl)-3-oxo-7-(trifluoromethyl)-2,3-dihydro-1H-isoindol-5-yl]methyl}piperazin-1-yl]methyl}cyclohexyl]oxy}piperidin-1-yl)-2,3-dihydro-1H-isoindol-2-yl]piperidine-2,6-dione]"
< 0.005,> 70,< 0.005,,35 to 70,"Cn1cnnc1C[C@]1(c2cccc(N3Cc4c(cc(CN5CCN(C[C@H]6CC[C@H](OC7CCN(c8ccc9c(c8)n(C)c(=O)n9C8CCC(=O)NC8=O)CC7)CC6)CC5)cc4C(F)(F)F)C3=O)c2)C[C@H](C#N)C1 (stereo partly drawn) [Example 215, (1r,3r)-3-[(4-methyl-4H-1,2,4-triazol-3-yl)methyl]-3-(3-{1-oxo-6-[(4-{[(1r,4r)-4-({1-[1-(2,6-dioxopiperidin-3-yl)-3-methyl-2-oxo-2,3-dihydro-1H-1,3-benzodiazol-5-yl]piperidin-4-yl}oxy)cyclohexyl]methyl}piperazin-1-yl)methyl]-4-(trifluoromethyl)-2,3-dihydro-1H-isoindol-2-yl}phenyl)cyclobutane-1-carbonitrile]"
> 0.5,,> 0.5,,,"C[C@@H]1C[C@@H](CN2CCN(c3ccc4c(c3)C(=O)N(C3CCC(=O)NC3=O)C4=O)CC2)CN(Cc2cc3c(c(C(F)(F)F)c2)CN(c2cccc(C4(Cc5nncn5C)COC4)c2)C3=O)C1 (stereo partly drawn) [Example 86, 2-(2,6-dioxopiperidin-3-yl)-5-(4-{[(3R,5R)-5-methyl-1-{[2-(3-{3-[(4-methyl-4H-1,2,4-triazol-3-yl)methyl]oxetan-3-yl}phenyl)-3-oxo-7-(trifluoromethyl)-2,3-dihydro-1H-isoindol-5-yl]methyl}piperidin-3-yl]methyl}piperazin-1-yl)-2,3-dihydro-1H-isoindole-1,3-dione]"
> 0.5,,> 0.5,,,"Cn1cnnc1CC1(c2cccc(N3Cc4c(cc(CN5CCC(CN6CCN(c7ccc8c(c7)C(=O)N(C7CCC(=O)NC7=O)C8=O)CC6)CC5)cc4C(F)(F)F)C3=O)c2)COC1 (stereo not drawn) [Example 28, 2-(2,6-dioxopiperidin-3-yl)-5-{4-[(1-{[2-(3-{3-[(4-methyl-4H-1,2,4-triazol-3-yl)methyl]oxetan-3-yl}phenyl)-3-oxo-7-(trifluoromethyl)-2,3-dihydro-1H-isoindol-5-yl]methyl}piperidin-4-yl)methyl]piperazin-1-yl}-2,3-dihydro-1H-isoindole-1,3-dione]"
0.005 to 0.05,35 to 70,< 0.005,,35 to 70,"Cn1cnnc1CC1(c2cccc(N3Cc4c(cc(N5CC6(CCN(CC7CCN(c8ccc9c(n8)CN(C8CCC(=O)NC8=O)C9=O)CC7)CC6)C5)cc4C(F)(F)F)C3=O)c2)COC1 (stereo not drawn) [Example 131, 3-{2-[4-({2-[2-(3-{3-[(4-methyl-4H-1,2,4-triazol-3-yl)methyl]oxetan-3-yl}phenyl)-3-oxo-7-(trifluoromethyl)-2,3-dihydro-1H-isoindol-5-yl]-2,7-diazaspiro[3.5]nonan-7-yl}methyl)piperidin-1-yl]-5-oxo-5H,6H,7H-pyrrolo[3,4-b]pyridin-6-yl}piperidine-2,6-dione]"
< 0.005,35 to 70,< 0.005,,35 to 70,"Cn1cnnc1CC1(c2cccc(N3Cc4c(cc(N5CC6(CCN(CC7CCN(c8ccc9c(c8F)CN(C8CCC(=O)NC8=O)C9=O)CC7)CC6)C5)cc4C(F)(F)F)C3=O)c2)COC1 (stereo not drawn) [Example 1, 3-{4-fluoro-5-[4-({2-[2-(3-{3-[(4-methyl-4H-1,2,4-triazol-3-yl)methyl]oxetan-3-yl}phenyl)-3-oxo-7-(trifluoromethyl)-2,3-dihydro-1H-isoindol-5-yl]-2,7-diazaspiro[3.5]nonan-7-yl}methyl)piperidin-1-yl]-1-oxo-2,3-dihydro-1H-isoindol-2-yl}piperidine-2,6-dione]"
0.005 to 0.05,< 35,> 0.5,,,"Cn1cnnc1C1(c2cccc(N3Cc4c(cc(CN5CCC[C@H](CN6CCN(C[C@H]7CC[C@@H](OC8CCN(c9ccc%10c(c9F)CN(C9CCC(=O)NC9=O)C%10=O)CC8)CC7)CC6)C5)cc4C(F)(F)F)C3=O)c2)COC1 (stereo partly drawn) [Example 161, 3-[4-fluoro-1-oxo-5-(4-{[(1r,4r)-4-[(4-{[(3S)-1-[(2-{3-[3-(4-methyl-4H-1,2,4-triazol-3-yl)oxetan-3-yl]phenyl}-3-oxo-7-(trifluoromethyl)-2,3-dihydro-1H-isoindol-5-yl)methyl]piperidin-3-yl]methyl}piperazin-1-yl)methyl]cyclohexyl]oxy}piperidin-1-yl)-2,3-dihydro-1H-isoindol-2-yl]piperidine-2,6-dione]"
0.05 to 0.5,35 to 70,< 0.005,C (C ≤ 35),,"Cn1cnnc1CC1(c2cccc(N3Cc4c(cc(CN5CCN(C[C@H]6CC[C@H](OC7CCN(c8cccc9c8n(C8CC8)c(=O)n9C8CCC(=O)NC8=O)CC7)CC6)CC5(C)C)cc4C(F)(F)F)C3=O)c2)CC(C#N)C1 (stereo partly drawn) [Example 312, (1r**,3r**)-3-(3-{6-[(2,2-dimethyl-4-{[(1r*,4r*)-4-({1-[3-cyclopropyl-1-(2,6-dioxopiperidin-3-yl)-2-oxo-2,3-dihydro-1H-1,3-benzodiazol-4-yl]piperidin-4-yl}oxy)cyclohexyl]methyl}piperazin-1-yl)methyl]-1-oxo-4-(trifluoromethyl)-2,3-dihydro-1H-isoindol-2-yl}phenyl)-3-[(4-methyl-4H-1,2,4-triazol-3-yl)methyl]cyclobutane-1-carbonitrile]"
